Reference: patent publication US20250263370A1 (Tay Therapeutics Limited, priority 2022, published 2025)
Read-outs that look alike come from different tables or passages of the source. Each block holds one molecule with its values, some of them ahead of it.

What was measured:
BRD4 BD2 = BRD4 BD2 (Homo sapiens (Human), UniProt O60885); experiment: NanoBRET bromodomain assay, NanoLuc-BRD4-BD2 fusion in HEK293 cells; conditions: for IC50: BRD4 BD2 (IC50), NanoBRET, HEK293 cells, top concentration 10 μM; for Fold selectivity: IC50 for BRD4 BD1 divided by IC50 for BRD4 BD2, qualitative if an IC50 is at the upper limit;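 as to all read-outs here: tracer displacement BRET read in transfected cells after 2 h compound exposure at 37 °C, signal in milliBRET units corrected against no-tracer background wells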
Protocol: HEK293 cells were transfected using NanoLuc-BRD4-BD1 or NanoLuc-BRD4-BD2 fusion vectors and incubated at 37° C. in an atmosphere of 5% CO2 for 20-24 hours. The transfected cells were then dispensed into 96-well plates using 90 μl cell suspension per well containing 2×10^5 cells/mL in Opti-MEM and 1× final concentration of tracer. 90 μL per well of cell suspension without tracer was also dispensed into at least 3 wells as “No tracer control samples” for background correction. Serially diluted test compounds were prepared at 1000× concentration in DMSO and further diluted to 10× concentration in Opti-MEM. […] Plates were then incubated at 37° C. +5% 002 incubator for 2 hours. […] Donor emission (450 nm) and acceptor emission (610 nm) were measured using PHERAstar (BMG LabTech). For data analysis, the raw BRET ratio was generated and converted to milliBRET units with background correction using the formula: [(Acceptorsample/Donorsample−(Acceptorno tracer control/Donorno tracer control)]×1000. The mBU data was plotted as a function of compound concentration and IC50s for BRET assay were determined by nonlinear regression analysis of concentration response curves using the Collaborative Drug Discovery Vault software. The fold-selectivity was calculated by dividing the IC50 for BRD4 BD1 by the IC50 for BRD4 BD2.

BRD4 BD1 = BRD4 BD1 (Homo sapiens (Human), UniProt O60885); experiment: NanoBRET bromodomain assay, NanoLuc-BRD4-BD1 fusion in HEK293 cells; assay type: cell-based; conditions: top concentration 10 μM
[1] = Intrinsic clearance in liver microsomes, mouse; assay type: in vitro ADME; conditions: pH 7.4, Method 2, read-out: Half-Life (T1/2) (min), Mouse
Protocol: From stock solution of compound on 10 mM DMSO, a working solution of 0.1 mM is prepared by diluting the compound in DMSO. 6.25 μL of a 20 mg/mL solution of microsomes in PBS pH 7.4 buffer is added to 216.25 μL PBS pH 7.4 buffer (final microsome concentration—0.5 mg/mL). 25 μL of 10 mM solution of NADPH in PBS pH 7.4 buffer is added to the incubations (final NADPH concentration—1 mM). The mixture is pre-warmed to 37° C. for 10 minutes. 2.5 μL of test compound working solution is added (final compound concentration—1 μM with 1% DMSO). Aliquots of 30 μL are taken from the reaction solution at 0.5, 5, 15, 30 and 60 minutes. The reaction was stopped by the addition of 5 volumes of cold acetonitrile with IS (100 nM alprazolam, 200 nM caffeine and 100 nM tolbutamide). Samples were centrifuged at 3, 220 g for 40 minutes. Aliquots of 100 μL of the supernatant are mixed with 100 μL of ultra-pure H2O and used for LC-MS/MS analysis. The percent compound remaining at each time point is calculated with respect to that of the 0.5 min sample. The data are analysed to calculate half-life. Control experiments are run without NADPH and blank samples are prepared using DMSO without the test compound.
A 50 mM stock solution (in DMSO) is prepared for the compound. From the stock solution, a working solution of 0.5 mM is prepared by diluting the compound in DMSO. This concentration of working solution is prepared considering a final concentration of 1 uM with 0.1% DMSO. The compound (1 μL of working solution) is spiked in PBS with pH 7.4 ([…]) at a concentration of 1 μM. Subsequently, 110 μL of 10 mM NADPH is added (as a co-factor). The sample is incubated at 37° C. for 15 min. Following this, pre-warmed liver microsomes (27.5 μL; final protein conc. 0.5 mg/mL) are added. The samples are then incubated at 37° C. Aliquots of samples are withdrawn at 0, 5, 15, 30, 45 and 60 min. The reaction is stopped by using chilled acetonitrile containing internal standard. The samples are centrifuged, and the supernatants analysed by LC-MS/MS. The percent compound remaining at each time point is calculated with respect to that of the 0 min sample. The data are then analysed to calculate half-life and intrinsic clearance (CLint). Control experiments are run without NADPH and blank samples are prepared using DMSO without the test compound.

IL-22 = IL-22 levels by ELISA in stimulated human peripheral blood mononuclear cells; assay type: cell-based; conditions: for IC50: Homo sapiens, PBMC; for IC50 for IL-22 relative to GSK620 / Biomarker selectivity (IL-22 vs. CXCL10): human PBMC; for IC50 for IL-22 relative to GSK620: 72 hours; for Biomarker selectivity (IL-22 vs. CXCL10): from mean IC50
Protocol: (§1) CD2, CD3, and CD28 antibody-coated beads from the T-cell activation/expansion kit (Miltenyi Biotec) were added to the PBMC at a bead-to-cell ratio of 1:2.
(§2) The mixture of PBMCs and beads were seeded into the wells of the round-bottom 96-well plate at a concentration of 2×10^5 cells/well in a total volume of 200 μL. The cells were cultured for 72 hours at 37° C. and 5% CO2 and then supernatants were collected and IL-17A and IL-22 levels were measured by ELISA. […] The final compound concentration ranged from 30,000 nM to 0.005 nM and the final DMSO concentration per well was 0.3%. PBMCs were seeded at approximately 2×10^5 cells/well in the wells of the 96-well tissue culture plate in a total volume of 190 μL. The plate was incubated for 1 hour at 37° C. and 5% CO2. […] The cells were then cultured for 24 hours at 37° C. and 5% CO2. The supernatant was collected and CXCL10 levels were measured by ELISA.

CXCL10 = CXCL10 levels by ELISA in IFN-γ stimulated human peripheral blood mononuclear cells; assay type: cell-based; conditions: human PBMC
Protocol: The impact of Examples 23, 80, and 101 on IL-17A, IL-22, and CXCL10 levels was analyzed in cryopreserved human peripheral blood mononuclear cells (PBMC) by ELISA. […] For IL-17A and IL-22 assays, Examples 23, 80, and 101 were serially diluted from 10 mM in DMSO and further diluted in assay media to 100× the required final concentration, of which, 2 μL was added per well to a round-bottom 96-well tissue culture plate where the final DMSO concentration per well was 0.1%. CD2, CD3, and CD28 antibody-coated beads from the T-cell activation/expansion kit (Miltenyi Biotec) were added to the PBMC at a bead-to-cell ratio of 1:2.
The mixture of PBMCs and beads were seeded into the wells of the round-bottom 96-well plate at a concentration of 2×10^5 cells/well in a total volume of 200 μL. The cells were cultured for 72 hours at 37° C. and 5% CO2 and then supernatants were collected and IL-17A and IL-22 levels were measured by ELISA. For the CXCL10 assay, Examples 23, 80, and 101 were serially diluted from 10 mM in DMSO and further diluted in assay media to 100× the required final concentration, of which 2 μL was added per well to a 96-well tissue culture plate. The final compound concentration ranged from 30,000 nM to 0.005 nM and the final DMSO concentration per well was 0.3%. PBMCs were seeded at approximately 2×10^5 cells/well in the wells of the 96-well tissue culture plate in a total volume of 190 μL. The plate was incubated for 1 hour at 37° C. and 5% CO2. The cells were then stimulated with IFN-γ (15 ng/mL final concentration) in a volume of 10 μL. The cells were then cultured for 24 hours at 37° C. and 5% CO2. The supernatant was collected and CXCL10 levels were measured by ELISA.

IL-17A = IL-17A levels by ELISA in stimulated human peripheral blood mononuclear cells; assay type: cell-based; conditions: for IC50: Homo sapiens, PBMC; for IC50 for IL-17A relative to GSK620 / Biomarker selectivity (IL-17 vs. CXCL10): human PBMC; for IC50 for IL-17A relative to GSK620: 72 hours; for Biomarker selectivity (IL-17 vs. CXCL10): from mean IC50
Protocol: as §1, §2

[2] = Test Subject 2, read-out: IL-22 IC50
[3] = Test Subject 3, read-out: IL-22 IC50
[4] = mean of test subjects, read-out: IL-22 IC50 Mean
[5] = Test Subject 2, read-out: CXCL10 IC50
[6] = Test Subject 3, read-out: CXCL10 IC50
[7] = mean of test subjects, read-out: CXCL10 IC50 Mean
[8] = Test Subject 1, read-out: IL-17A IC50
[9] = Test Subject 3, read-out: IL-17A IC50
[10] = mean of test subjects, read-out: IL-17A IC50 Mean

IC50 (BRD4 BD2): 200 to 1000 nM | Fold selectivity (BRD4 BD2): X (Fold >2 and ≤50) | IC50 (BRD4 BD1): ≥ 10000 nM | half-life at 1 μM [1]: > 60 min
Compound: CNC(=O)c1[nH]c(C(=O)N[C@@H]2CCC(F)(F)C2)cc1O[C@@H](C)c1ccccc1 [Example 111, N^5-((R)-3,3-difluorocyclopentyl)-N^2-methyl-3-((S)-1-phenylethoxy)-1H-pyrrole-2,5-dicarboxamide]

IC50 (BRD4 BD2): 200 to 1000 nM | Fold selectivity (BRD4 BD2): X (Fold >2 and ≤50) | IC50 (BRD4 BD1): ≥ 10000 nM | half-life at 1 μM [1]: > 60 min
Compound: CNC(=O)c1[nH]c(C(=O)N[C@H]2CCOC2)cc1O[C@@H](C)c1ccccc1 [Example 113, N^2-methyl-3-((S)-1-phenylethoxy)-N^5-((S)-tetrahydrofuran-3-yl)-1H-pyrrole-2,5-dicarboxamide]

IC50 (BRD4 BD2): 200 to 1000 nM | Fold selectivity (BRD4 BD2): X (Fold >2 and ≤50) | IC50 (BRD4 BD1): ≥ 10000 nM | half-life at 1 μM [1]: > 60 min
Compound: CNC(=O)c1[nH]c(C(=O)N[C@H]2CCC(F)(F)C2)cc1O[C@@H](C)c1ccccc1 [Example 110, N^5-((S)-3,3-difluorocyclopentyl)-N^2-methyl-3-((S)-1-phenylethoxy)-1H-pyrrole-2,5-dicarboxamide]

IC50 (BRD4 BD2): 200 to 1000 nM | Fold selectivity (BRD4 BD2): X (Fold >2 and ≤50) | IC50 (BRD4 BD1): ≥ 10000 nM | half-life at 1 μM [1]: > 60 min
Compound: CNC(=O)c1[nH]c(C(=O)NC(C)C)cc1O[C@@H](C)c1ccccc1 [Example 105, (S)—N^5-isopropyl-N^2-methyl-3-(1-phenylethoxy)-1H-pyrrole-2,5-dicarboxamide]

IC50 (BRD4 BD2): 50 to 200 nM | Fold selectivity (BRD4 BD2): XX (Fold >50 and ≤200) | IC50 (BRD4 BD1): ≥ 10000 nM | half-life at 1 μM [1]: > 60 min
Compound: CNC(=O)c1[nH]c(C(=O)NC23CC(C2)C3)cc1O[C@@H](C)c1ccccc1 [Example 117, (S)—N^5-(bicyclo [1.1.1]pentan-1-yl)-N^2-methyl-3-(1-phenylethoxy)-1H-pyrrole-2,5-dicarboxamide]

IC50 (BRD4 BD2): 200 to 1000 nM | Fold selectivity (BRD4 BD2): X (Fold >2 and ≤50) | IC50 (BRD4 BD1): ≥ 10000 nM | half-life at 1 μM [1]: > 60 min
Compound: CNC(=O)c1[nH]c(C(=O)NCCC(F)(F)F)cc1O[C@@H](C)c1ccccc1 [Example 112, (S)—N^2-methyl-3-(1-phenylethoxy)-N^5-(3,3,3-trifluoropropyl)-1H-pyrrole-2,5-dicarboxamide]

IC50 (BRD4 BD2): < 50 nM | Fold selectivity (BRD4 BD2): XXX (Fold >200) | IC50 (BRD4 BD1): ≥ 10000 nM | IC50 (IL-22; [2]): 9.3 nM | IC50 (IL-22; [3]): 30.7 nM | IC50 (IL-22; [4]): 20 nM | IC50 for IL-22 relative to GSK620 (IL-22): decreased mean IC50 | IC50 (CXCL10; Test Subject 1, read-out: CXCL10 IC50): > 30000 nM | IC50 (CXCL10; [5]): > 30000 nM | IC50 (CXCL10; [6]): > 30000 nM | IC50 (CXCL10; [7]): > 30000 nM | IC50 (IL-17A; [8]): 25.1 nM | IC50 (IL-17A; [9]): 187 nM | IC50 (IL-17A; [10]): 106 nM | IC50 for IL-17A relative to GSK620 (IL-17A): increased mean IC50
Compound: CNC(=O)c1[nH]c(-c2cnn(C(C)C)c2)cc1O[C@@H](C)c1ccccc1 [Example 80, (S)-5-(1-isopropyl-1H-pyrazol-4-yl)-N-methyl-3-(1-phenylethoxy)-1H-pyrrole-2-carboxamide]
Biomarker selectivity (IL-22 vs. CXCL10) (IL-22): >1500 Fold | selectivity to induction of CXCL10 relative to IL-17A and IL-22 (CXCL10): showed selectivity to induction of CXCL10 relative to IL-17A and IL-22 | Biomarker selectivity (IL-17 vs. CXCL10) (IL-17A): >283 Fold

BRD4 BD2 % Activity Remaining @ 10 uM (BRD4 BD2; 10 uM, (2) = second batch): 22% | IC50 (BRD4 BD2): < 50 nM | Fold selectivity (BRD4 BD2): XXX (Fold >200) | IC50 (BRD4 BD1): ≥ 10000 nM | IC50 (IL-22; Test Subject 1, read-out: IL-22 IC50): 8.5 nM | IC50 (IL-22; [2]): 1.2 nM | IC50 (IL-22; [3]): 4.3 nM | IC50 (IL-22; [4]): 4.7 nM | IC50 for IL-22 relative to GSK620 (IL-22): decreased mean IC50 | IC50 (CXCL10; [5]): > 30000 nM | IC50 (CXCL10; [6]): > 30000 nM | IC50 (CXCL10; [7]): > 30000 nM | IC50 (IL-17A; [8]): 104 nM | IC50 (IL-17A; Test Subject 2, read-out: IL-17A IC50): 9.6 nM | IC50 (IL-17A; [9]): 53.4 nM | IC50 (IL-17A; [10]): 24.5 nM | IC50 for IL-17A relative to GSK620 (IL-17A): decreased mean IC50
Compound: CNC(=O)c1[nH]c(-c2ncc(C)[nH]2)cc1O[C@@H](C)c1ccccc1 [Example 23, (S)-N-methyl-5-(5-methyl-1H-imidazol-2-yl)-3-(1-phenylethoxy)-1H-pyrrole-2-carboxamide]
Biomarker selectivity (IL-22 vs. CXCL10) (IL-22): >6429 Fold | selectivity to induction of CXCL10 relative to IL-17A and IL-22 (CXCL10): showed selectivity to induction of CXCL10 relative to IL-17A and IL-22 | Biomarker selectivity (IL-17 vs. CXCL10) (IL-17A): >1226 Fold
